Measured values published in patent publication US8486933B2, “Pyrimidine inhibitors of kinase activity” (AbbVie Inc., priority 2009, dated 2013).

target: T1, human IGF-1R (Homo sapiens, UniProt P08069); experiment: IGF-1R homogenous time-resolved fluorescence (HTRF) in vitro kinase assay; type: biochemical; conditions: recombinant GST-tagged human IGF-1R aa 954-1367; ATP 50 μM; 60 minutes at room temperature
T1 construct: human IGF-1R, amino acids 954-1367 expressed by baculovirus in Sf21 cells; GST (C); purchased Cell Signaling Technology; host or cells: baculovirus in Sf21 cells
T1 sequence (P08069 954-1367): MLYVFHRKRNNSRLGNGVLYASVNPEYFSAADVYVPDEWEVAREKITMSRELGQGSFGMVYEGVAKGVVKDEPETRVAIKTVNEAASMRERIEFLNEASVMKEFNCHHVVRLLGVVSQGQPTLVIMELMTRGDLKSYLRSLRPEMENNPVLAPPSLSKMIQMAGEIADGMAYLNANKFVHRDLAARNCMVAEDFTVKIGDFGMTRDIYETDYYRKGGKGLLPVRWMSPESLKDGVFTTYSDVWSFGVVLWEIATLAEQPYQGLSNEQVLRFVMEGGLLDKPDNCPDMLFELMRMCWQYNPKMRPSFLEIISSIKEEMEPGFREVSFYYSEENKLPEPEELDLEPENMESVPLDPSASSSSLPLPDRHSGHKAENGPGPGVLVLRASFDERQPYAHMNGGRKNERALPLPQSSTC
Description: IGF-1R kinase activity was assayed by a homogenous time-resolved fluorescence (HTRF) in vitro kinase assay (Mathis, G., HTRF(R) Technology. J Biomol Screen, 1999. 4(6): p. 309-314). Specifically, 10 μL C-terminal GST-tagged, recombinant, human IGF-1R, amino acids 954-1367 expressed by baculovirus in Sf21 cells (Cell Singaling Technology) was mixed with 10 μL inhibitor (various concentrations, 2% final DMSO) and 10 μL of ATP (50 μM final concentration) in reaction buffer (50 mM HEPES, pH 7.5, 10 mM MgCl2, 2 mM MnCl2, 0.1% BSA and 1 mM DTT, 40 μL final volume). The reaction was initiated by addition of 10 μL of biotinylated peptide substrate (Biotin-Ahx-[…], 0.5 μM final concentration) in a black 384-well plate (Packard). […] The quenched reaction was allowed to stand at room temperature for 1 hour and then read in a time-resolved fluorescence detector (Envision, Perkin Elmer) at 615 nm and 665 nm simultaneously. The ratio between the signal of 615 nm and 665 nm was used in the calculation of the IC50.

Row | SMILES | IC50
1 | CNC(=O)c1cc2c(cnn2C)cc1Nc1nc(Nc2ccc(N3CCC(N(C)C)CC3)cc2)ncc1Br [Example 38, 5-{[5-bromo-2-({4-[4-(dimethylamino)piperidin-1-yl]phenyl}amino)pyrimidin-4-yl]amino}-N,1-dimethyl-1H-indazole-6-carboxamide] | 10 to 50 nM
2 | CCN1CCN(c2ccc(Nc3ncc(Br)c(Nc4ccc5[nH]c(C(F)(F)F)nc5c4)n3)cc2)CC1 [Example 1, 5-bromo-N^2-[4-(4-ethylpiperazin-1-yl)phenyl]-N^4-[2-(trifluoromethyl)-1H-benzimidazol-5-yl]pyrimidine-2,4-diamine] | > 500 nM
3 | COc1cc(N2CCC(N(C)C)CC2)ccc1Nc1ncc(Cl)c(Nc2ccc3oc(C)nc3c2)n1 [Example 25, 5-chloro-N^2-{4-[4-(dimethylamino)piperidin-1-yl]-2-methoxyphenyl}-N^4-(2-methyl-1,3-benzoxazol-5-yl)pyrimidine-2,4-diamine] | > 500 nM
4 | CCS(=O)(=O)c1cc2[nH]ncc2cc1Nc1nc(Nc2ccc(N3CCOCC3)cc2OC)ncc1Br [Example 32, 5-bromo-N^4-[6-(ethylsulfonyl)-1H-indazol-5-yl]-N^2-(2-methoxy-4-morpholin-4-ylphenyl)pyrimidine-2,4-diamine] | 10 to 50 nM
5 | CCN1CCN(c2ccc(Nc3ncc(Br)c(Nc4ccc5[nH]c(Cc6ccccc6)nc5c4)n3)cc2)CC1 [Example 2, N^4-(2-benzyl-1H-benzimidazol-5-yl)-5-bromo-N^2-[4-(4-ethylpiperazin-1-yl)phenyl]pyrimidine-2,4-diamine] | > 500 nM
6 | CCS(=O)(=O)c1cc2c(cnn2C)cc1Nc1nc(Nc2ccc(N3CCOCC3)cc2OC)ncc1Br [Example 39, 5-bromo-N^4-[6-(ethylsulfonyl)-1-methyl-1H-indazol-5-yl]-N^2-(2-methoxy-4-morpholin-4-ylphenyl)pyrimidine-2,4-diamine] | 10 to 50 nM
7 | COc1cc(N2CCC(N(C)C)CC2)ccc1Nc1ncc(Br)c(Nc2cccc3[nH]c(C)nc23)n1 [Example 16, 5-bromo-N^2-{4-[4-(dimethylamino)piperidin-1-yl]-2-methoxyphenyl}-N^4-(2-methyl-1H-benzimidazol-4-yl)pyrimidine-2,4-diamine] | 101 to 500 nM
8 | CCS(=O)(=O)c1cc2[nH]ncc2cc1Nc1nc(Nc2ccc(N3CCC(N(C)C)CC3)cc2OC)ncc1Br [Example 30, 5-bromo-N^2-{4-[4-(dimethylamino)piperidin-1-yl]-2-methoxyphenyl}-N^4-[6-(ethylsulfonyl)-1H-indazol-5-yl]pyrimidine-2,4-diamine] | < 10 nM
9 | CCN1CCN(c2ccc(Nc3ncc(Br)c(Nc4cccc5oc(C)nc45)n3)cc2)CC1 [Example 15, 5-bromo-N^2-[4-(4-ethylpiperazin-1-yl)phenyl]-N^4-(2-methyl-1,3-benzoxazol-4-yl)pyrimidine-2,4-diamine] | 101 to 500 nM
10 | COc1cc(N2CCC(N(C)C)CC2)ccc1Nc1ncc(Br)c(Nc2cc3cn[nH]c3cc2C)n1 [Example 21, 5-bromo-N^2-{4-[4-(dimethylamino)piperidin-1-yl]-2-methoxyphenyl}-N^4-(6-methyl-1H-indazol-5-yl)pyrimidine-2,4-diamine] | 101 to 500 nM
11 | COc1cc(N2CCC(N(C)C)CC2)ccc1Nc1ncc(Br)c(Nc2cc3cn[nH]c3cc2S(=O)(=O)C(C)C)n1 [Example 23, 5-bromo-N^2-{4-[4-(dimethylamino)piperidin-1-yl]-2-methoxyphenyl}-N^4-[6-(isopropylsulfonyl)-1H-indazol-5-yl]pyrimidine-2,4-diamine] | < 10 nM
12 | CCN1CCN(c2ccc(Nc3ncc(Br)c(Nc4ccc5scnc5c4)n3)cc2)CC1 [Example 14, N^4-1,3-benzothiazol-5-yl-5-bromo-N^2-[4-(4-ethylpiperazin-1-yl)phenyl]pyrimidine-2,4-diamine] | 101 to 500 nM
13 | COc1cc(N2CCC(N(C)C)CC2)ccc1Nc1ncc(Cl)c(Nc2cc3cn[nH]c3cc2S(=O)(=O)C(C)C)n1 [Example 26, 5-chloro-N^2-{4-[4-(dimethylamino)piperidin-1-yl]-2-methoxyphenyl}-N^4-[6-(isopropylsulfonyl)-1H-indazol-5-yl]pyrimidine-2,4-diamine] | 10 to 50 nM

The remaining lines, values ahead:

Row | IC50 | SMILES
14 | > 500 nM | COc1cc(N2CCC(N3CCN(C)CC3)CC2)ccc1Nc1ncc(Br)c(Nc2ccc3ccc(-c4ccccc4)nc3c2)n1 [Example 48, 5-bromo-N^2-{2-methoxy-4-[4-(4-methylpiperazin-1-yl)piperidin-1-yl]phenyl}-N^4-(2-phenylquinolin-7-yl)pyrimidine-2,4-diamine]
15 | 10 to 50 nM | COc1cc(N2CCC(N(C)C)CC2)ccc1Nc1ncc(Br)c(Nc2cc3cnn(C)c3cc2S(C)(=O)=O)n1 [Example 34, 5-bromo-N^2-{4-[4-(dimethylamino)piperidin-1-yl]-2-methoxyphenyl}-N^4-[1-methyl-6-(methylsulfonyl)-1H-indazol-5-yl]pyrimidine-2,4-diamine]
16 | > 500 nM | COc1cc(N2CCC(N(C)C)CC2)ccc1Nc1ncc(Cl)c(Nc2cccc3[nH]c(C)nc23)n1 [Example 17, 5-chloro-N^2-{4-[4-(dimethylamino)piperidin-1-yl]-2-methoxyphenyl}-N^4-(2-methyl-1H-benzimidazol-4-yl)pyrimidine-2,4-diamine]
17 | > 500 nM | CCN1CCN(c2ccc(Nc3ncc(Br)c(Nc4ccc5ncn(Cc6ccccc6)c5c4)n3)cc2)CC1 [Example 5, N^4-(1-benzyl-1H-benzimidazol-6-yl)-5-bromo-N^2-[4-(4-ethylpiperazin-1-yl)phenyl]pyrimidine-2,4-diamine]
18 | 101 to 500 nM | CCN1CCN(c2ccc(Nc3ncc(C(F)(F)F)c(Nc4ccc5[nH]ncc5c4)n3)cc2)CC1 [Example 11, N^2-[4-(4-ethylpiperazin-1-yl)phenyl]-N^4-1H-indazol-5-yl-5-(trifluoromethyl)pyrimidine-2,4-diamine]
19 | 10 to 50 nM | COc1cc(N2CCC(N3CCN(C)CC3)CC2)ccc1Nc1ncc(Br)c(Nc2ccc3[nH]ncc3c2)n1 [Example 13, 5-bromo-N^4-1H-indazol-5-yl-N^2-{2-methoxy-4-[4-(4-methylpiperazin-1-yl)piperidin-1-yl]phenyl}pyrimidine-2,4-diamine]
20 | < 10 nM | COc1cc(N2CCC(N(C)C)CC2)ccc1Nc1ncc(Br)c(Nc2cc3cnn(C)c3cc2S(=O)(=O)C(C)C)n1 [Example 27, 5-bromo-N^2-{4-[4-(dimethylamino)piperidin-1-yl]-2-methoxyphenyl}-N^4-[6-(isopropylsulfonyl)-1-methyl-1H-indazol-5-yl]pyrimidine-2,4-diamine]
21 | 10 to 50 nM | COc1cc(N2CCC(N(C)C)CC2)ccc1Nc1ncc(Br)c(Nc2cc3cn[nH]c3cc2Cl)n1 [Example 20, 5-bromo-N^4-(6-chloro-1H-indazol-5-yl)-N^2-{4-[4-(dimethylamino)piperidin-1-yl]-2-methoxyphenyl}pyrimidine-2,4-diamine]
22 | < 10 nM | COc1cc(N2CCC(N3CCN(C)CC3)CC2)ccc1Nc1ncc(Br)c(Nc2cc3cnn(C)c3cc2S(=O)(=O)C(C)C)n1 [Example 28, 5-bromo-N^4-[6-(isopropylsulfonyl)-1-methyl-1H-indazol-5-yl]-N^2-{2-methoxy-4-[4-(4-methylpiperazin-1-yl)piperidin-1-yl]phenyl}pyrimidine-2,4-diamine]
23 | 10 to 50 nM | COc1cc(N2CCOCC2)ccc1Nc1ncc(Br)c(Nc2cc3cnn(C)c3cc2S(C)(=O)=O)n1 [Example 40, 5-bromo-N^2-(2-methoxy-4-morpholin-4-ylphenyl)-N^4-[1-methyl-6-(methylsulfonyl)-1H-indazol-5-yl]pyrimidine-2,4-diamine]
24 | 51 to 100 nM | COc1cc(N2CCC(N(C)C)CC2)ccc1Nc1ncc(Br)c(Nc2ccc3sc(C)nc3c2)n1 [Example 22, 5-bromo-N^2-{4-[4-(dimethylamino)piperidin-1-yl]-2-methoxyphenyl}-N^4-(2-methyl-1,3-benzothiazol-5-yl)pyrimidine-2,4-diamine]
25 | 10 to 50 nM | CCS(=O)(=O)c1cc2c(cnn2C)cc1Nc1nc(Nc2ccc(N3CCC(N(C)C)CC3)cc2)ncc1Br [Example 36, 5-bromo-N^2-{4-[4-(dimethylamino)piperidin-1-yl]phenyl}-N^4-[6-(ethylsulfonyl)-1-methyl-1H-indazol-5-yl]pyrimidine-2,4-diamine]
26 | 10 to 50 nM | CN(C)C1CCN(c2ccc(Nc3ncc(Br)c(Nc4cc5cnn(C)c5cc4S(C)(=O)=O)n3)cc2)CC1 [Example 37, 5-bromo-N^2-{4-[4-(dimethylamino)piperidin-1-yl]phenyl}-N^4-[1-methyl-6-(methylsulfonyl)-1H-indazol-5-yl]pyrimidine-2,4-diamine]
27 | > 500 nM | CCN1CCN(c2ccc(Nc3ncc(Br)c(Nc4ccc5[nH]c(CCc6ccccc6)nc5c4)n3)cc2)CC1 [Example 3, 5-bromo-N^2-[4-(4-ethylpiperazin-1-yl)phenyl]-N^4-[2-(2-phenylethyl)-1H-benzimidazol-5-yl]pyrimidine-2,4-diamine]
28 | 101 to 500 nM | COc1cc(N2CCC(N(C)C)CC2)ccc1Nc1ncc(Br)c(Nc2cc3cn(C)nc3cc2S(=O)(=O)C(C)C)n1 [Example 29, 5-bromo-N^2-{4-[4-(dimethylamino)piperidin-1-yl]-2-methoxyphenyl}-N^4-[6-(isopropylsulfonyl)-2-methyl-2H-indazol-5-yl]pyrimidine-2,4-diamine]
